Measured values as given in ChEMBL document CHEMBL2040805, “Cyclotides from an extreme habitat: characterization of cyclic peptides from Viola abyssinica of the Ethiopian highlands” (J Nat Prod, 2011).

tested on: U-937/GTB; assay: Cytotoxicity against human U937/GTB cells after 72 hrs by fluorometric microculture cytotoxicity assay; format: functional, cell-based

Compared with CC[C@H](C)[C@@H]1NC(=O)[C@@H]2CCCN2C(=O)[C@H](Cc2c[nH]c3ccccc23)NC(=O)[C@H](CO)NC(=O)[C@@H]2CSSC[C@@H]3NC(=O)[C@H]([C@@H](C)O)NC(=O)[C@H](CCC(=O)O)NC(=O)CNC(=O)[C@@H]4CSSC[C@H](NC(=O)CNC(=O)[C@@H]5CCCN5C(=O)[C@H]([C@@H](C)O)NC(=O)[C@H](CC(N)=O)NC(=O)[C@H](CSSC[C@H](NC1=O)C(=O)N[C@@H]([C@@H](C)O)C(=O)N[C@@H](CCCNC(=N)N)C(=O)N[C@@H](CC(N)=O)C(=O)NCC(=O)N[C@@H](CC(C)C)C(=O)N1CCC[C@H]1C(=O)N[C@@H](C(C)C)C(=O)N4)NC(=O)[C@H]([C@@H](C)O)NC(=O)CNC(=O)CNC(=O)[C@H](C)NC3=O)C(=O)N[C@@H](CO)C(=O)N2, CC(C)C[C@@H]1NC(=O)CNC(=O)[C@H](CC(N)=O)NC(=O)[C@H](CCCNC(=N)N)NC(=O)[C@H]([C@@H](C)O)NC(=O)[C@@H]2CSSC[C@@H]3NC(=O)[C@H]([C@@H](C)O)NC(=O)CNC(=O)CNC(=O)[C@H](Cc4ccccc4)NC(=O)[C@@H]4CSSC[C@H](NC(=O)[C@H]([C@@H](C)O)NC(=O)[C@H](CSSC[C@H](NC(=O)[C@H](C(C)C)NC(=O)[C@@H]5CCCN5C1=O)C(=O)NCC(=O)N[C@@H](CCC(=O)O)C(=O)N[C@H]([C@@H](C)O)CN4)NC(=O)CNC(=O)[C@@H]1CCCN1C(=O)[C@H]([C@@H](C)O)NC(=O)[C@H](CC(N)=O)NC3=O)C(=O)N[C@@H](CC(=O)O)C(=O)N1CCC[C@H]1C(=O)N[C@@H](Cc1c[nH]c3ccccc13)C(=O)N1CCC[C@H]1C(=O)N[C@@H](C(C)C)C(=O)N2 is 2.9-fold lower in IC50: 7600 nM for the first, 2600 nM for the second.

For COc1cccc2c1C(=O)c1c(O)c3c(c(O)c1C2=O)C[C@@](O)(C(=O)CO)C[C@@H]3O[C@H]1C[C@H](N)[C@H](O)[C@H](C)O1 [DOXORUBICIN], the IC50 was 160 nM.
